Experimental findings from US8933142B2, “Low-extractable thioxanthones” (Lamberti Spa, priority 2010, dated 2015) are described below.

Series [1] in a line: Through-cure (thumb twist test), as photoinitiator. The note with it: 3% thioxanthone derivative, 3% Esacure A 198, cyan ink, 3 μm on coated cardboard, Hg lamp 120 W/cm. The procedure:
(§1) Evaluation of “Through-Cure”
(§2) The “through cure” test evaluates the degree of cross-linking of the deeper layers of the formulate (film) spread on the substrate. The film is considered completely crosslinked when it is not detached from the substrate or damaged by the “thumb twist test”. The test is carried out at various speeds of exposure to UV source. The higher the speed the higher the reactivity of the system.
(§3) The products described in the examples were tested both as photoinitiators and sensitizers. For the evaluation as photoinitiator the following formulation is employed (by weight): 3% of derivative of thioxanthone of formula I, 3% of Esacure A 198, up to 100% with cyan ink for off-set printing. For the evaluation as sensitizers the formulation is composed as follows (by weight): 0.5% of derivative of thioxanthone of formula I, 3% of Esacure A 198, 3% of Esacure 1001, up to 100% with cyan ink for off-set printing.
(§4) The resulting mixtures are milled with a three cylinders mill (laboratory scale) and applied on a coated cardboard with a thickness of 3 μm by means of film coater (RK Print Coater Instrument Ltd), then exposed at different speed to a mercury vapors lamp at high pressure 120 W/cm.
(§5) ITX, in the same amounts, is chosen as reference.

Series [2] is described as follows: Through-cure (thumb twist test), as sensitizer. Particulars: 0.5% thioxanthone derivative, 3% Esacure A 198, 3% Esacure 1001, cyan ink, 3 μm on coated cardboard, Hg lamp 120 W/cm. The procedure:
as §1, §2, §3, §4, §5

Series [3] can be described thus: Photo DSC reactivity in tripropylene glycol diacrylate. Particulars: for Peak height / ΔH (peak area): 0.1% w/w compound, 0.1% w/w EDB, LED 400 nm, 24.3 mW/cm^2; for ΔH of polymerization of isomer 3 relative to isomer 1: Photo DSC peak area; for ΔH of polymerization of isomer 3 relative to isomer 1 / Reactivity of isomer 3 relative to isomer 1: isomer 3 versus isomer 1; for Reactivity of isomer 3 relative to isomer 1: Photo DSC peak height. From the text:
Comparison of the reactivity of the 1 and 3 derivatives of thioxanthone by means of Photo DSC.
The compound of Example 1 (dodecyl 7-methyl-9-oxo-9H-thioxanthene-3-carboxylate) and the compound of Example 8 (dodecyl 7-methyl-9-oxo-9H-thioxanthene-1-carboxylate, comparative) were formulated and evaluated by PhotoDSC.
The compound of Example 5 (N,N-diisobutyl-7-methyl-9-oxo-9H-thioxanthene-3-carboxamide) and the compound of Example 7 (N,N-diisobutyl-7-methyl-9-oxo-9H-thioxanthene-1-carboxamide, comparative) were also formulated and compared by PhotoDSC.
The formulations were prepared dissolving in tripropylene glycol diacrylate the compounds described in the Examples 1, 8, 5 and 7 at a concentration of 0.1% w/w and EDB (Ethyl 4-dimethylamino-benzoate) at a concentration of 0.1% w/w.
About 1 mg of formulation (exactly weighted) was kept into a DSC aluminum panel and analyzed by a Mettler DSC1 calorimeter equipped with a 400 nm LED with a power of 450 mW. The LED was set in order to irradiate the formulation with an intensity of 24.3 mW/cm^2.
During the exposition to LED at 400 nm the heat developed from the polymerization of formulations prepared with the compounds described in the Examples 1, 8, 5 and 7 was recorded as peak height and peak area (ΔH). The peak height is proportional to the rate of polymerization: higher is the peak—faster is the polymerization.

A short description of series [4]: Formulability through solubility in methylene chloride. Particulars: room temperature, stirring.
Description: 10 g of the thioxanthone derivatives under investigation are weighed and suspended in the same amount of solvent; the mixture is maintained under stirring at room temperature.
After 2 min the clearness of the solution is evaluated: if the sample is not dissolved further aliquots of solvent are added, keeping the mixture under stirring for two min after each addition until complete solubilization.
Series [5] in a line: FT-IR degree of polymerization in a pigmented composition (as sensitizer of Esacure 1001). The note with it: 0.5% sensitizer, 3% Esacure 1001, 3% Esacure A 198, cyan ink, 3 μm film. The procedure: The compounds described in the examples were evaluated also as sensitizer in a pigmented composition as described below.
Pigmented photopolymerizable compositions are prepared by mixing 3% by weight of both Esacure 1001 and coinitiator Esacure A 198 (both commercialized by Lamberti S.p.A.), 0.5% by weight of derivatives of thioxanthone of the Examples listed in Table 1 and up to 100% by weight of a cyan ink for off-set inking. ITX is used as reference sensitizer.
The photopolymerizable compositions are milled with a three cylinders mill (laboratory scale) in order to homogenize the mix and applied with a thickness of 3 μm on a soft polyethylene substrate by means of film coater (RK Print Coater Instrument Ltd).
The sample, placed in the sample lodgment of a FT-IR (FT-IR 430-Jasco), is exposed to a Mercury/Xenon Vapors light source at high pressure to 120 W/cm (L8868 Light-cure, Hamamatsu) set at a distance of 8 cm from the sample with an angle of 30°.
IR spectra were acquired at constant time during the photopolymerization and the reduction over the time of the area of the peak at 1408 cm^−1 assigned to the acrylic double bond is determined with the help of a IR software (Perkin Elmer, Spectrum ONE v. 2.0).
This allows to quantify the degree of polymerization over time and therefore the efficiency of the photoinitiator.

The nature of series [6]: FT-IR degree of polymerization in a pigmented photopolymerizable composition (as photoinitiator). Particulars: 3% photoinitiator, 3% Esacure A198, cyan ink, 3 μm film, Hg/Xe lamp 120 W/cm. The procedure:
Evaluation of the Derivatives of Thioxanthone in a Pigmented Photopolymerizable Composition by Means of FT-IR.
Pigmented photopolymerizable compositions are prepared by mixing 3% by weight of both the photoinitiators of formula I (Examples 1-6) and the coinitiator Esacure A198 (bis-N,N-[4-dimethyl aminobenzoyl)oxyethylen-1-yl]-methylamine), commercialized by Lamberti S.p.A, and up to 100% by weight of a cyan ink for off-set inking.
Isopropyl thioxanthone (ITX) is chosen as reference photoinitiator.
The photopolymerizable compositions are milled with a three cylinders mill (laboratory scale) in order to homogenize the mix and applied with a thickness of 3 μm on a soft polyethylene substrate by means of a film coater (RK Print Coater Instrument Ltd).
The sample, placed in the sample lodgment of a FT-IR (FT-IR 430-Jasco), is exposed to a Mercury/Xenon Vapors light source at high pressure to 120 W/cm (L8868 Light-cure, Hamamatsu) set at a distance of 8 cm from the sample and at an angle of 30°.
IR spectra are acquired at constant time intervals during the photopolymerization and the reduction over time of the peak area at 1408 cm^−1 assigned to the acrylic double bond was determined by IR software (Perkin Elmer, Spectrum ONE v. 2.0). This allows to quantify the degree of polymerization over the time and therefore the efficiency of the photoinitiator.

For `CCCCCCCCCCCCOC(=O)c1ccc2c(=O)c3cc(C)ccc3sc2c1` [Example 1, dodecyl-7-methyl-9-oxo-9H-thioxanthene-3-carboxylate], the “Through-cure (photoinitiator)” value in series [1] turned out to be 85 m/min. For the same compound, in series [2], the “Through-cure (sensitizer)” value is listed as 53 m/min. In series [3], the Peak height amounted to 58.9 W/g, the “ΔH (peak area)” value is 266.4 J/g, the “ΔH of polymerization of isomer 3 relative to isomer 1” value was 1.2 and the “Reactivity of isomer 3 relative to isomer 1” value is “about 1.5 times”. Also, in series [4], the Solubility was found to be 33%. Further, in series [5], the “% degree of polymerization after 1 sec” value was 17.8%, the “% degree of polymerization after 2 sec” value worked out at 29.9% and the “% degree of polymerization after 5 sec” value is given as 40.7%. Further, in series [6], the “% degree of polymerization after 1 sec” value stood at 19.6%, the “% degree of polymerization after 2 sec” value came to 36.1% and the “% degree of polymerization after 5 sec” value is on record as 47.2%.

Take `CCCCCOC(=O)c1ccc2c(=O)c3cc(C)ccc3sc2c1` [Example 2, pentyl 7-methyl-9-oxo-9H-thioxanthene-3-carboxylate]: the “Through-cure (photoinitiator)” value in series [1] came out at 5 m/min. Also, the “Through-cure (sensitizer)” value in series [2] was “Not reactive”. Moreover, the Solubility in series [4] was found to be 33%. In addition, in series [5], the “% degree of polymerization after 1 sec” value is “Not reactive”, the “% degree of polymerization after 2 sec” value is “Not reactive” and the “% degree of polymerization after 5 sec” value was “Not reactive”. Besides, in series [6], the “% degree of polymerization after 1 sec” value was found to be 2.5%, the “% degree of polymerization after 2 sec” value is 3.1% and the “% degree of polymerization after 5 sec” value was 7.2%.

On to `COC(=O)c1ccc2c(=O)c3cc(C)ccc3sc2c1` [Example 3, methyl 7-methyl-9-oxo-9H-thioxanthene-3-carboxylate], for which, in series [1], the “Through-cure (photoinitiator)” value is recorded as “Insoluble”. Also, the “Through-cure (sensitizer)” value in series [2] is on record as “Insoluble”. Besides, the Solubility entry in series [4] is recorded as “insoluble”. Besides, in series [5], the “% degree of polymerization after 1 sec” value was “Insoluble”, the “% degree of polymerization after 2 sec” value is reported as “Insoluble” and the “% degree of polymerization after 5 sec” value is given as “Insoluble”. In addition, in series [6], the “% degree of polymerization after 1 sec” value is on record as “Insoluble”, the “% degree of polymerization after 2 sec” value was “Insoluble” and the “% degree of polymerization after 5 sec” value is listed as “Insoluble”.

Consider `C=CCOC(=O)c1ccc2c(=O)c3cc(C)ccc3sc2c1` [Example 4, allyl 7-methyl-9-oxo-9H-thioxanthene-3-carboxylate], for which the “Through-cure (photoinitiator)” value in series [1] turned out to be 70 m/min. Also, the “Through-cure (sensitizer)” value in series [2] came out at 60 m/min. Besides, the Solubility in series [4] is 5%. In addition, in series [5], the “% degree of polymerization after 1 sec” value is given as 20.6%, the “% degree of polymerization after 2 sec” value stood at 33.2% and the “% degree of polymerization after 5 sec” value was found to be 43.2%. For the same compound, in series [6], the “% degree of polymerization after 1 sec” value is recorded as 5.9%, the “% degree of polymerization after 2 sec” value is 18.3% and the “% degree of polymerization after 5 sec” value was 35.3%.

For the compound `Cc1ccc2sc3cc(C(=O)N(CC(C)C)CC(C)C)ccc3c(=O)c2c1` [Example 5, N,N-disobutyl 7-methyl-9-oxo-9H-thioxanthene-3-carboxamide], the “Through-cure (photoinitiator)” value in series [1] is reported as 90 m/min. In series [2], the “Through-cure (sensitizer)” value is listed as 60 m/min. Besides, in series [3], the Peak height stood at 39.0 W/g, the “ΔH (peak area)” value came to 224.8 J/g, the “ΔH of polymerization of isomer 3 relative to isomer 1” value was “about 2” and the “Reactivity of isomer 3 relative to isomer 1” value came out at 3.5 times. The compound further displayed a Solubility in series [4] of 50%. For the same compound, in series [5], the “% degree of polymerization after 1 sec” value is reported as 22.3%, the “% degree of polymerization after 2 sec” value was 36.7% and the “% degree of polymerization after 5 sec” value was 45.8%. In series [6], the “% degree of polymerization after 1 sec” value is 18.0%, the “% degree of polymerization after 2 sec” value worked out at 33.7% and the “% degree of polymerization after 5 sec” value was 45.9%.

In turn, `Cc1ccc2sc3cc(C(=O)N4CCN(C)CC4)ccc3c(=O)c2c1` [Example 6, 4-methyl-piperazinyl 7-methyl-9-oxo-9H-thioxanthene-3-carboxamide] came in with a Solubility in series [4] of 5%.

Regarding `Cc1ccc2sc3cccc(C(=O)N(CC(C)C)CC(C)C)c3c(=O)c2c1` [Example 7, N,N-diisobutyl-7-methyl-9-oxo-9H-thioxanthene-1-carboxamide], in series [3], the Peak height is 11.1 W/g and the “ΔH (peak area)” value was found to be 111.4 J/g.

Turning to `CCCCCCCCCCCCOC(=O)c1cccc2sc3ccc(C)cc3c(=O)c12` [Example 8, dodecyl 7-methyl-9-oxo-9H-thioxanthene-1-carboxylate], in series [3], the Peak height was determined as 38.4 W/g and the “ΔH (peak area)” value is 208.5 J/g.

`CC(C)c1ccc2sc3ccccc3c(=O)c2c1` [ITX, isopropyl thioxanthone, reference compound]: in series [1], the “Through-cure (photoinitiator)” value was found to be 95 m/min. Further, the “Through-cure (sensitizer)” value in series [2] was found to be 60 m/min. In addition, in series [5], the “% degree of polymerization after 1 sec” value turned out to be 19.6%, the “% degree of polymerization after 2 sec” value is reported as 31.4% and the “% degree of polymerization after 5 sec” value worked out at 40.9%. In addition, in series [6], the “% degree of polymerization after 1 sec” value is on record as 10.0%, the “% degree of polymerization after 2 sec” value came out at 18.9% and the “% degree of polymerization after 5 sec” value turned out to be 33.0%.
